What is called MIC is the lowest concentration that inhibits growth of the organism.

The results in this text go back to PMC10892836, “Hybrid Molecules of Azithromycin with Chloramphenicol and Metronidazole: Synthesis and Study of Antibacterial Properties” (Pharmaceuticals, 2024).

Assay [1] deals with Escherichia coli ATCC 25922. Nature of the assay: MIC, broth microdilution (CLSI). In kind it is cell-based. The following applies: ATCC25922, E. coli ATCC 25922. The procedure: (§1) Minimum inhibitory concentration (MIC) values for facultative anaerobic bacteria were determined using the broth microdilution method outlined in the CLSI guidelines. Initially, all compounds were dissolved in dimethyl sulfoxide (DMSO) to achieve a concentration of 10 mg/mL. Subsequently, they were diluted with the Mueller–Hinton nutrient broth (MHB) supplemented with 5% defibrinated horse blood (for Streptococcus spp.) to a concentration of 64 μg/mL. Following 2-fold serial dilutions of the substances, bacterial cultures in the log growth phase were added to 96-well plates at a concentration of 2.5–5 × 10^5 CFU/mL, and the plates were incubated at 37 °C for 16–20 h.
(§2) Minimum inhibitory concentration (MIC) was defined as the lowest concentration of a chemical compound that inhibits the visible growth of the bacterial strain. At least three replicates of MIC measurements were performed.

Assay [2] concerns Staphylococcus aureus ATCC 29213. Nature of the assay: MIC, broth microdilution (CLSI). In kind it is cell-based. The following applies: ATCC29213, S. aureus ATCC 29213. The procedure: as §1, §2
On the technique in general: Broth dilution looks for growth in wells or tubes with falling amounts of substance.

The subject of assay [3] is Streptococcus agalactiae 1Cp. Nature of the assay: MIC, broth microdilution (CLSI). The assay is classed as cell-based. The following applies: S. agalactiae 1Cp. The procedure: as §1, §2
The subject of assay [4] is Streptococcus pneumoniae ATCC 49619. Nature of the assay: MIC, broth microdilution (CLSI). The assay is classed as cell-based. The procedure: as §1, §2
Another assay relates to E. coli ΔtolC. Briefly: MIC, broth microdilution, E. coli ΔtolC panel. In kind it is cell-based. As to conditions: Escherichia coli.
Source text: The E. coli JW5503 strain with a deletion of the tolC gene (referred to here as E. coli ΔtolC) was kindly provided by Prof. Hironori Niki, National Institute of Genetics, Japan. The E. coli BW25113 strain with a partial deletion of the lptD gene, codons 330 to 352 (referred to here as E. coli lptD^mut) was kindly provided by Prof. Alexander S. Mankin, University of Illinois, Chicago, IL, USA [44]. The E. coli ΔtolC strain was transformed with the pDualrep2 (Amp^R) plasmid, whereas the E. coli lptD^mut strain was transformed with the pDualrep2 (Kan^R) plasmid (not yet published). Both E. coli strains were grown at 37 °C in Luria–Bertani (LB) medium supplemented with either 100 μg/mL ampicillin or 50 μg/mL kanamycin.
MIC values for a panel of E. coli ΔtolC strains were determined via the broth microdilution assay as described here with minor modifications. Briefly, the overnight E. coli culture was diluted to an OD600 of 0.01 in the fresh LB medium supplied with 100 μg/mL ampicillin, if required. Then, the cells were additionally incubated for 1–1.5 h at 37 °C with shaking at 200 rpm (Shaker-Incubator ES-20/80, BioSan, Riga, Latvia). Meanwhile, 100 μL of the liquid growth medium was placed in each well of a 96-well sterile plate (200 μL was placed in column 1). Solutions of tested compounds were added in the first column of the plate at 2 times the final concentration of 200 μg/mL. Then, 2-fold serial dilutions were performed. Immediately before use, bacterial inoculum was diluted (1:100) in the growth medium, and 100 μL of it was transferred in each well except for the sterility control column. The plate was incubated overnight (16–20 h) at 37 °C with constant shaking at 200 rpm (Shaker-Incubator ES-20/80, BioSan, Riga Latvia). Cell growth was assessed by scanning the OD600 with a VICTOR X5 Multilabel Plate Reader (PerkinElmer, Waltham, MA, USA).
as §2

The subject of assay [5] is cell-free bacterial translation system based on the E. coli S30 lysate. Briefly: In vitro translation in a cell-free bacterial system (firefly luciferase synthesis). The assay is classed as biochemical. As to conditions: final concentration 5 μM; water control = 100%. How it is done:
The inhibition of firefly luciferase (Fluc) synthesis by new azithromycin derivatives was assessed with the E. coli S30 Extract System for Linear Templates (Promega, Madison, WI, USA). Each reaction (5 μL total volume) was supplied with 0.1 mM mixture of all canonical amino acids, 4 U of RiboLock RNase Inhibitor (Thermo Fisher Scientific, Waltham, MA, USA), 0.1 mM of D-luciferin (Sigma-Aldrich, Burlington, MA, USA), 50 ng of firefly luciferase (Fluc) mRNA, and a chemical compound at a final concentration, as indicated in the main text, or nuclease-free water instead. Before the addition of mRNA, reaction tubes were pre-incubated at RT for 5 min and then placed back on ice. After the addition of mRNA, reaction mixtures were immediately subjected to continuous chemiluminescence measurement using the VICTOR X5 Multilabel Plate Reader (PerkinElmer, Waltham, MA, USA) at 37 °C for 30 min. Maximal rates of the firefly luciferase (Fluc) accumulation were calculated using the OriginPro 7.5 software. The values were normalized to a positive control (nuclease-free water, assigned a value of 100%). The results were visualized using the QtiPlot software (version 0.9.8.9).

The test system of a further assay is 70S E. coli ribosomes. Briefly: Competition-binding assay with BODIPY-ERY (fluorescence anisotropy). The following applies: displacement of BODIPY-ERY; means, 95% confidence intervals; read-out: Apparent dissociation constant KD. The procedure:
Affinity of compounds to the 70S E. coli ribosomes (isolated from the E. coli MRE600 strain according to a published procedure) was evaluated with a competition-binding assay using fluorescently labeled erythromycin (BODIPY-ERY) as described earlier. Briefly, BODIPY-ERY (16 nM) was mixed with ribosomes (34 nM) in 384-well plates in the buffer containing 20 mM HEPES-KOH (pH 7.5), 50 mM NH4Cl, 10 mM Mg(CH3CO2)2, 4 mM β-mercaptoethanol, and 0.05% (v/v) Tween-20. Solutions of the tested compounds were added to the obtained complexes to final concentrations from 1 to 1000 nM and incubated for 2 h at 30 °C. The values of fluorescence anisotropy were obtained using the VICTOR X5 Multilabel Plate Reader (PerkinElmer, Waltham, MA, USA). Filters of 485 and 535 nm were used for excitation and emission, respectively. To calculate the apparent dissociation constants, the assumption that the competitive equilibrium binding of two ligands occurs at a single binding site was used. For each compound, at least 2 replicates were performed. Values of apparent dissociation constants are given as means with 95% confidence intervals. The results were visualized using the GraphPad Prism software (version 8.0.1).

≈ marks a conversion by molar mass, not a printed value.

Take `CC[C@H]1OC(=O)[C@H](C)[C@@H](O[C@H]2C[C@@](C)(OC)[C@@H](O)[C@H](C)O2)[C@H](C)[C@@H](O[C@@H]2O[C@H](C)C[C@H](N(C)C)[C@H]2O)[C@](C)(O)C[C@@H](C)CN(C)[C@H](C)[C@@H](O)[C@]1(C)O` [AZT, azithromycin]: the MIC in assay [1] is 2 µg/mL (≈ 2.67 µM); in assay [2], 0.5 µg/mL (≈ 0.668 µM); in assay [3] (Table 3) it was 0.015 µg/mL (≈ 0.02 µM); in assay [3] (Table S3, comparison with 2′-O-deacetyl metabolites) it was 0.03 µg/mL; in assay [4] (ATCC49619, S. pneumoniae ATCC 49619, Table S3, comparison with 2′-O-deacetyl metabolites), 0.03 µg/mL; in assay [4] (ATCC49619, S. pneumoniae ATCC 49619, Tables 2 and 3) it was 0.06 µg/mL (≈ 0.0801 µM). The compound also showed an MIC in the assay with E. coli ΔtolC of 0.8 µg/mL (≈ 1.07 µM). Moreover, the “Relative luciferase activity (relative maximal rate of Fluc accumulation)” value in assay [5] is on record as 0.3%. In the assay on 70S E. coli ribosomes, the Kd stood at 0.4 ± 0.1 nM.
